Measurements as given in patent US8361967B2, “Beta sheet inhibiting peptides for preventing and/or treating Alzheimer's Disease” (Tianjin Medical University, priority 2008, dated 2013).
No end group written: not given here.

What was measured:
[1] = tested on: APP 695 transgenic mice; test: Congo Red staining of amyloid plaques in temporal cortex and hippocampus of APP 695 transgenic mice; type: in vivo; settings: intracerebroventricular 3 μl of 40 μmol/L daily for 10 days
Text: (§1) Experimental animals: thirty APP 695 transgenic mice of nine-month-old and ten C57BL/6J mice which are matched in genetic background and age, were all purchased from the experimental animal research center of Peking Union Medical College, Chinese Academy of Medical Sciences.
(§2) Animal grouping and model preparation: the thirty APP 695 transgenic mice were randomly divided into model group of 15 mice and the polypeptide-injected group of 15 mice. Ten C57BL/6J mice were used as a normal control group. For the polypeptide-injected group, the animals were received intracerebroventricular injection of 3 μl of saline solution containing H102 of 40 μmol/L each time. For the control group and model group, the animals were received intracerebroventricular injection of 3 μl of normal saline solution each time. The injection was carried out daily for 10 days. All animals were kept in the same conditions in SPF-grade mice room in the experimental animal research center of Tianjin Medical University
(§3) The animals were anaesthetized intraperitoneally by 10% chloral hydrate at a dose of 400 mg/Kg weight. The animals were fixed on a brain stereotaxic frame, and the hair was cut off. After disinfection with Anerdian, the skin was incised along the midline of the head for about 1 cm. The periosteum was stripped to expose the bone marks. […]

[2] = target: T1, Aβ1-42 peptide (Homo sapiens, UniProt P05067); settings: for ThT fluorescence intensity over time vs Aβ1-42 alone: 44.30 μmol/L with Aβ1-42 11.07 μmol/L, 37° C., 12 h to 7 d; for dose dependence of effect on Aβ fibril formation / most effective concentration for inhibition of Aβ fibril formation: 10-100 μmol/L with Aβ1-42 11.07 μmol/L; for dose dependence of effect on Aβ fibril formation / effect on Aβ1-42 aggregation and fibril formation (ThT, FIG. 2) / most effective concentration for inhibition of Aβ fibril formation / Inhibition (%) of Aβ aggregation: 37° C. for 24 h; for effect on Aβ1-42 aggregation and fibril formation (ThT, FIG. 2) / Inhibition (%) of Aβ aggregation: Aβ1-42 11.07 μmol/L, test substance 44.30 μmol/L; for most effective concentration for inhibition of Aβ fibril formation: dose-effect; for Inhibition (%) of Aβ aggregation: Aβ1-42 alone = 100% fluorescence
Method: 2. […] Each solution was incubated at 37° C. for 24 h, and 10 μl was taken out from each group and added into 990 μl of 3.0 μmol/L ThT phosphate buffer. ThT fluorescence intensity was measured at the excitation wavelength of 453 nm and emission wavelength of 478˜486 nm.
3. The dose-effect and time-effect relationships of the polypeptides of the invention on Aβ1-42: polypeptide H102 was formulated in PBS (as described above) to obtain a series of concentrations, and Aβ1-42 was added into the solutions to the concentration of 11.07 μmol/L. The resulted solutions were incubated at 37° C. for 24 hours, and samples were taken and measured for ThT fluorescence intensity, in order to determine the dose-effect relationship of the polypeptides of the invention on Aβ1-42. Solutions containing H102 of 44.30 μmol/L and Aβ1-42 of 11.07 μmol/L, or Vitamin E of 44.30 μmol/L and Aβ1-42 of 11.07 μmol/L, respectively, were incubated at 37° C. Samples were taken and measured for ThT fluorescence intensity at the time points of 12 hours (12 h), 1 day (1 d), 3 days (3 d), 5 days (5 d) and 7 days (7 d) after the incubation, in order to determine the time-effect relationships of various polypeptides on Aβ1-42.

[3] = tested on: human neuroblastoma SH-SY5Y cells; test: Cytotoxicity test (MTT): viability of SH-SY5Y cells incubated with Aβ1-42; type: cell-based; settings: 72 hours
Method: 5. Cytotoxicity test: a commonly-used cell line, human neuroblastoma SH-SY5Y, was used in the assay of cytotoxcity, which was purchased from Xuanwu Hospital of Capital Medical University and cultured in MEM medium (supplemented with 10% (v/v) fetal bovine serum) by conventional methods, in a 37° C., 5% CO2 incubator. The cell line was subcultured once every 5 days. When the SH-SY5Y cells grew stably in the logarithmic phase, the cells were inoculated into a 96 well plates (Costar) in a density of 1.0×10^4/ml, with 200 μl of medium added per well. After 24 hours, the medium was replaced by serum-free medium, and Aβ1-42 was added to the concentration of 5 μmol/L. The wells were divided into several groups. […] At 72 hours after the addition of the polypeptides, 20 μl of 3-(4,5-dimethyl-2-thiazolyl)-2,5-diphenyltetrazole bromide (MTT) (5 mg/ml) was added into each well, and the plate was incubated at 37° C. for 4 hours. Then the original culture medium was discarded, and 200 μl of DMSO was added into each well. The plate was left to stand for 10 min and then shaken for 1 min, allowing the Formazane particles to be completely dissolved. Then the optical density (OD) at 492 nm was measured on an automatic microplate reader.

[4] = tested on: APP 695 transgenic mice; test: Immunohistochemical staining of hippocampal CA1 neurons (anti-APP N-terminal and anti-Aβ antibody) in APP 695 transgenic mice; type: in vivo; settings: intracerebroventricular 3 μl of 40 μmol/L daily for 10 days
Text: as §1, §2, §3

[5] = target: T1, Aβ1-42 peptide; test: Electron microscopy of Aβ1-42 fibril formation; type: biochemical; design: Reagents: Aβ1-42 (purity >98%); purchased Sigma-Aldrich, Inc; settings: peptide 44.30 μmol/L with Aβ1-42 11.07 μmol/L, 37° C., 5 days; for length of formed Aβ fibrils: Aβ alone about 0.5 to 5 μm; for diameter of formed Aβ fibrils: Aβ alone about 8 to 10 nm
Method: 4. […] Samples of 5 μl were taken from each group, dropped onto a 300-mesh deionized copper mesh with carbon support film, and left to stand at room temperature for 15 min. The samples were negatively stained in dark by 2% uranyl acetate for 2 min. After drying, the samples were observed under a transmission electron microscope.

| Substance | amyloid plaques (Congo red) vs transgenic model group [1] | T1/2, time point at which the fluorescence intensity reaches the half-peak [2] | ThT fluorescence intensity over time vs Aβ1-42 alone [2] | dose dependence of effect on Aβ fibril formation [2] | effect on Aβ1-42 aggregation and fibril formation (ThT, FIG. 2) [2] | most effective concentration for inhibition of Aβ fibril formation [2] | effect on viability of SH-SY5Y cells ([3]; 10, 20 and 40 μmol/L with Aβ1-42 5 μmol/L) | optimal concentration to improve the viability of cells ([3]; Aβ1-42 5 μmol/L) | amount of Aβ1-42 positive cells in brain CA1 area vs model group [4] | length of formed Aβ fibrils [5] | diameter of formed Aβ fibrils [5] | Inhibition (%) of Aβ aggregation [2] |
| --- | --- | --- | --- | --- | --- | --- | --- | --- | --- | --- | --- | --- |
| HKQLPFFEED [H102] | much lower in the number and size | fourth day | significantly weaker at each time point | dose-dependent | remarkably inhibit | about 20 μmol/L | most effective to improve the viability of cells | 20 µmol/L | much lower than that of the model group | 0.3 to 3 μm | 3 to 6 nm | – |
| Leu-Pro-Phe-Phe-Asp (LPFFD; printed: Leu-Pro-Phe-Phe-Asp) [L5, reference compound] | – | – | – | – | – | – | – | – | – | 0.3 to 5 μm | 4 to 8 nm | 25.74% |
| Vitamin E | – | fourth day | significantly weaker at each time point | dose-dependent | remarkably inhibit | about 20 μmol/L | – | – | – | – | – | 24.85% |
